Assay results published in the NIST ThermoML archive (doi:10.1016/j.jct.2011.12.005).
Numbers after ± are expanded uncertainties.

Assays:
[1] = Molar enthalpy of transition or fusion
[2] = for Normal melting temperature: Crystal, DTA
[3] = Crystal 2, Differential scanning calorimeter

Molar enthalpy of transition or fusion ([1]; Crystal, DSC) | Normal melting temperature [2] | Molar enthalpy of transition or fusion [1, 3] | Triple point temperature [2, 3] | Structure (SMILES)
31.9 ± 0.9 kJ/mol | 171.8 ± 0.9 °C |  |  | COc1cc(C=CC(=O)O)ccc1O [4-hydroxy-3-methoxycinnamic acid]
17.9 ± 0.6 kJ/mol | 232.2 ± 0.5 °C | 2.6 kJ/mol | 405.8 K | Cn1c(=O)c2c(ncn2C)n(C)c1=O [caffeine]
29.1 ± 0.8 kJ/mol | 207.6 ± 0.5 °C |  |  | COc1cc(C(=O)O)ccc1O [4-hydroxy-3-methoxybenzoic acid]
17.4 ± 0.5 kJ/mol | 49 ± 0.4 °C |  |  | Cc1ccc(C(C)C)c(O)c1 [3-methyl-6-isopropylphenol]
